# What was measured:
# Assay type in all cases: physicochemical
# [1] = Stability of Selexipag amorphous form on storage, solid form by PXRD
# Protocol: X-ray powder diffraction spectrum was measured on a bruker axs D8 advance X-ray powder diffractometer having a copper-a radiation. Adequate sample was gently flattered on a sample holder and scanned from 2 to 50 degrees two-theta, at 0.02 increment and scan speed of 0.2 Sec/Step. The sample was simply placed on the sample holder. The sample was rotated at 30 rpm at a voltage 40 KV and current 35 mA. In another aspect of the present invention, Selexipag amorphous form is stable at 5±3° C. and 25±2° C./RH (Relative humidity) 60±5%, 40±2° C./RH (Relative humidity) 75±5% and has the following stability data: […]
# [2] = Stability of Selexipag amorphous form on storage, Chromatographic Purity (by HPLC)
# Protocol: (§1) In another aspect of the present invention, Selexipag amorphous form is stable at 5±3° C. and 25±2° C./RH (Relative humidity) 60±5%, 40±2° C./RH (Relative humidity) 75±5% and has the following stability data: […]
# [3] = Storage stability of Selexipag amorphous form (statement); details: at 5±3° C. and 25±2° C./RH 60±5%, 40±2° C./RH 75±5%
# Protocol: as §1
# [4] = 25 ± 2° C./RH 60 ± 5%, 1st month
# [5] = 25 ± 2° C./RH 60 ± 5%, 2nd Month
# [6] = 25 ± 2° C./RH 60 ± 5%, 3rd Month
# [7] = 25 ± 2° C./RH 60 ± 5%, 4th Month
# [8] = 25 ± 2° C./RH 60 ± 5%, 5th Month
# [9] = 40 ± 2° C./RH 75 ± 5%, 1st month
# [10] = 40 ± 2° C./RH 75 ± 5%, 2nd Month
# [11] = 40 ± 2° C./RH 75 ± 5%, 3rd Month
compound,measurement,setting,value
"CC(C)N(CCCCOCC(=O)NS(C)(=O)=O)c1cnc(-c2ccccc2)c(-c2ccccc2)n1 [Selexipag amorphous form, 2-{4-[(5,6-diphenylpyrazin-2-yl)(isopropyl)amino]butoxy}-N-(methylsulfonyl)acetamide]",PXRD,"[1]; 5 ± 3° C., 1st month",Amorphous
same,PXRD,"[1]; 5 ± 3° C., 2nd Month",Amorphous
same,PXRD,"[1]; 5 ± 3° C., 3rd Month",Amorphous
same,PXRD,"[1]; 5 ± 3° C., 4th Month",Amorphous
same,PXRD,"[1]; 5 ± 3° C., 5th Month",Amorphous
same,PXRD,"[1]; 5 ± 3° C., 6th Month",Amorphous
same,PXRD,"[1]; 5 ± 3° C., Initial",Amorphous
same,PXRD,[1]; [4],Amorphous
same,PXRD,[1]; [5],Amorphous
same,PXRD,[1]; [6],Amorphous
same,PXRD,[1]; [7],Amorphous
same,PXRD,[1]; [8],Amorphous
same,PXRD,"[1]; 25 ± 2° C./RH 60 ± 5%, Initial",Amorphous
same,PXRD,[1]; [9],Amorphous
same,PXRD,[1]; [10],Amorphous
same,PXRD,[1]; [11],Amorphous
same,PXRD,"[1]; 40 ± 2° C./RH 75 ± 5%, Initial",Amorphous
same,Chromatographic Purity (by HPLC),"[2]; 5 ± 3° C., 1st month",99.63
same,Chromatographic Purity (by HPLC),"[2]; 5 ± 3° C., 2nd Month",99.66
same,Chromatographic Purity (by HPLC),"[2]; 5 ± 3° C., 3rd Month",99.76
same,Chromatographic Purity (by HPLC),"[2]; 5 ± 3° C., 4th Month",99.76
same,Chromatographic Purity (by HPLC),"[2]; 5 ± 3° C., 5th Month",99.70
same,Chromatographic Purity (by HPLC),"[2]; 5 ± 3° C., 6th Month",99.76
same,Chromatographic Purity (by HPLC),"[2]; 5 ± 3° C., Initial",99.63
same,Chromatographic Purity (by HPLC),[2]; [4],99.63
same,Chromatographic Purity (by HPLC),[2]; [5],99.59
same,Chromatographic Purity (by HPLC),[2]; [6],99.72
same,Chromatographic Purity (by HPLC),[2]; [7],99.78
same,Chromatographic Purity (by HPLC),[2]; [8],99.69
same,Chromatographic Purity (by HPLC),"[2]; 25 ± 2° C./RH 60 ± 5%, 6th Month",99.68
same,Chromatographic Purity (by HPLC),"[2]; 25 ± 2° C./RH 60 ± 5%, Initial",99.63
same,Chromatographic Purity (by HPLC),[2]; [9],99.62
same,Chromatographic Purity (by HPLC),[2]; [10],99.58
same,Chromatographic Purity (by HPLC),[2]; [11],99.66
same,Chromatographic Purity (by HPLC),"[2]; 40 ± 2° C./RH 75 ± 5%, 4th Month",99.69
same,Chromatographic Purity (by HPLC),"[2]; 40 ± 2° C./RH 75 ± 5%, 5th Month",99.66
same,Chromatographic Purity (by HPLC),"[2]; 40 ± 2° C./RH 75 ± 5%, 6th Month",99.65
same,Chromatographic Purity (by HPLC),"[2]; 40 ± 2° C./RH 75 ± 5%, Initial",99.63
same,stability on storage,[3],stable

# — patent US10815204B2, “Process for the preparation of diphenylpyrazine derivatives” (HONOUR (R&D), priority 2016, dated 2020)
